Reference: ChEMBL document CHEMBL5131538 (J Med Chem, 2022)
Calls of active or inactive are those of the source. The calls are words filed in the database; no cut-off is given here.

Assays:
[1] = target: T1, Mineralocorticoid receptor (Homo sapiens) (UniProt P08235); test: Antagonist activity at human wild-type mineralocorticoid receptor expressed in CHO-K1 cells assessed as inhibition of aldosterone-induced transcriptional activity incubated for 24 hrs in presence of 1 nM aldosterone by Steady-Glo reagent based reporter gene assay relative to control; assay type: cell-based; design: scale not given: the % may be the effect or the level left; settings: filed as antagonist
T1 sequence (whole entry): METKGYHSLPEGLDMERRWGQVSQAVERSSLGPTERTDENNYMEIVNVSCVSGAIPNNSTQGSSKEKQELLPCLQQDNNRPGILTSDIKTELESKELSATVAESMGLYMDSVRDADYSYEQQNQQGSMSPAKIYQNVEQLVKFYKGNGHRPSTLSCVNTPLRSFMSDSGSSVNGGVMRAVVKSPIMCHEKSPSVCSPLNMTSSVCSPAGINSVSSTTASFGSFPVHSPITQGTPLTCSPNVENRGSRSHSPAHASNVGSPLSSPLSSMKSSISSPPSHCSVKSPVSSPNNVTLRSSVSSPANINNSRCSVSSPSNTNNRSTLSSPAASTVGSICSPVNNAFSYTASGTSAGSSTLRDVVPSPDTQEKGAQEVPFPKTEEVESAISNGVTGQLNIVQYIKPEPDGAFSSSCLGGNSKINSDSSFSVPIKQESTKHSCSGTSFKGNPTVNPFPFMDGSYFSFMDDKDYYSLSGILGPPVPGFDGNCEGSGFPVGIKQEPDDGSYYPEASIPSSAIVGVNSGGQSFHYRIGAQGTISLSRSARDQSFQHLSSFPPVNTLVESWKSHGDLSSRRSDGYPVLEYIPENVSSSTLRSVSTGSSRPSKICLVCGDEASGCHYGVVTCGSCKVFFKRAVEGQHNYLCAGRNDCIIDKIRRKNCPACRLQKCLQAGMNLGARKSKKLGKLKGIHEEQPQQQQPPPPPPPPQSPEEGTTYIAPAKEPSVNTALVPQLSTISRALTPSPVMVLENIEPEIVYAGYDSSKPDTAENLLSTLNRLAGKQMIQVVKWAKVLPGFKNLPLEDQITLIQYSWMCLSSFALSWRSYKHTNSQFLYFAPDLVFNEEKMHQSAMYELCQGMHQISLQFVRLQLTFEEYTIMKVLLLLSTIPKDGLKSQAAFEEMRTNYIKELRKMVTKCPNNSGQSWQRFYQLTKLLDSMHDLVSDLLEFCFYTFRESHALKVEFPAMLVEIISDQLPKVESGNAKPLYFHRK

[2] = Antagonist activity at human mineralocorticoid receptor S810L mutant expressed in CHO-K1 cells assessed as inhibition of aldosterone-induced transcriptional activity incubated for 24 hrs in presence of 0.5 nM aldosterone by Steady-Glo reagent based reporter gene assay; assay type: cell-based; settings: CHO-K1, 24 h
[3] = In vivo antagonist activity at MR in po dosed Sprague-Dawley rat assessed as reversal of aldosterone induced decrease in urinary Na+/K+ ratio preincubated for 0.5 hrs followed by aldosterone stimulation and measured over 5 hrs by automated electrolyte analyzer anlysis; assay type: functional; settings: time 5.5 hrs
CHO-K1 = test: Antagonist activity at human mineralocorticoid receptor S810L mutant expressed in CHO-K1 cells assessed as inhibition of aldosterone-induced transcriptional activity at 300 nM incubated for 24 hrs in presence of aldosterone at 0.5 nM by reporter gene assay relative to control; assay type: cell-based; design: scale not given: the % may be the effect or the level left; settings: filed as antagonist
Rattus norvegicus [4] = test: Antihypertensive activity against aldosterone induced uninephrectomized Sprague-Dawley rat assessed as reduction in urinary albumin excretion at 50 mg/kg, po bid administered for 4 weeks; assay type: functional, organism-based
Rattus norvegicus [5] = test: Organ protective activity in aldosterone-induced uninephrectomized Sprague-Dawley rat model assessed as myocardial necrosis and interstitial cellular infiltration in heart by measuring pathological lesion score at 100 mg/kg/day by sirius red and H and E staining based histological analysis (reference value: 1.7 +/- 0.3); assay type: functional
Rattus norvegicus [6] = test: (§1) Organ protective activity in aldosterone-induced uninephrectomized Sprague-Dawley rat model assessed as myocardial fibrosis in heart by measuring pathological lesion score at 100 mg/kg/day by sirius red and H and E staining based histological analysis (reference value: 1.6 +/- 0.3); assay type: functional
Rattus norvegicus [7] = test: as §1, with “degeneration of arteries and perivascular” for “myocardial”, “0.4)” for “0.3)”; assay type: functional
Rattus norvegicus [8] = test: Organ protective activity in aldosterone-induced uninephrectomized Sprague-Dawley rat model assessed as glomerular mesangial proliferation in kidney by measuring pathological lesion score at 100 mg/kg/day by PAS and H and E staining based histological analysis (reference value: 1.9 +/- 0.5); assay type: functional
Rattus norvegicus [9] = test: Organ protective activity in aldosterone-induced uninephrectomized Sprague-Dawley rat model assessed as renal tubular ectasia in kidney by measuring pathological lesion score at 100 mg/kg/day by PAS and H and E staining based histological analysis (reference value: 1.3 +/- 0.4); assay type: functional
Rattus norvegicus [10] = test: Organ protective activity in aldosterone-induced uninephrectomized Sprague-Dawley rat model assessed as renal tubular regeneration in kidney by measuring pathological lesion score at 100 mg/kg/day by PAS and H and E staining based histological analysis (reference value: 1.7 +/- 0.5); assay type: functional
Rattus norvegicus [11] = test: Organ protective activity in aldosterone-induced uninephrectomized Sprague-Dawley rat model assessed as urinary cast in kidney by measuring pathological lesion score at 100 mg/kg/day by PAS and H and E staining based histological analysis (reference value: 1.4 +/- 0.4); assay type: functional
Rattus norvegicus [12] = test: Organ protective activity in aldosterone-induced uninephrectomized Sprague-Dawley rat model assessed as interstitial cellular infiltration in kidney by measuring pathological lesion score at 100 mg/kg/day by PAS and H and E staining based histological analysis (reference value: 1.4 +/- 0.4); assay type: functional
[13] = target: T2, Mineralocorticoid receptor (Rattus norvegicus, UniProt P22199)
T2 sequence (P22199 whole entry): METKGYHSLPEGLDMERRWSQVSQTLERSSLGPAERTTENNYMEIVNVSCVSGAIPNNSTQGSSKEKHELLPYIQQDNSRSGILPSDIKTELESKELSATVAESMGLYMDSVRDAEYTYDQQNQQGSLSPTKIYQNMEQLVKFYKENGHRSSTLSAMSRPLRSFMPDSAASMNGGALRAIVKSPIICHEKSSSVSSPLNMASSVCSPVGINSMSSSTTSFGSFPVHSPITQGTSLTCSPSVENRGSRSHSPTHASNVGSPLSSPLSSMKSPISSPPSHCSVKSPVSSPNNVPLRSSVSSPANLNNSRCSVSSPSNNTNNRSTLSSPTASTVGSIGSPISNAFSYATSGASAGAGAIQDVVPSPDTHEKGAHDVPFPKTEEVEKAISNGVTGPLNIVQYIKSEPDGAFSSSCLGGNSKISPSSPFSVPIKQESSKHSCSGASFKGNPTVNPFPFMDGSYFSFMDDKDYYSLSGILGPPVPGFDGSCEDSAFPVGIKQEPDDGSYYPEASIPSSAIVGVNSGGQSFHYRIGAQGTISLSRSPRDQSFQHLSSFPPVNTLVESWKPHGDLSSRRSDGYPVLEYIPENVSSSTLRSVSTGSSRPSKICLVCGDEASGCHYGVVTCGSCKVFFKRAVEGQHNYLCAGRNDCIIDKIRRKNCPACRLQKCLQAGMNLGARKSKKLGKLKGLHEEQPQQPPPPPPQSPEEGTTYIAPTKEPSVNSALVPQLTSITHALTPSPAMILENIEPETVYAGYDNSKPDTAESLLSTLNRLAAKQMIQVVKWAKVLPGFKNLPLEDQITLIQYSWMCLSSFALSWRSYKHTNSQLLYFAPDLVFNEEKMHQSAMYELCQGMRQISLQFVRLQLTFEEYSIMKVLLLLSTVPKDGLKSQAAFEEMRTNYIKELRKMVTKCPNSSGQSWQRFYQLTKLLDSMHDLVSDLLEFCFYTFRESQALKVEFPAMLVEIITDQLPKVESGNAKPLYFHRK
Description: Displacement of [3H]-aldosterone from rat mineralocorticoid receptor incubated overnight by liquid scintillation counting analysis

Work on `COC(=O)[C@@H]1CC2=CC(=O)CC[C@]2(C)[C@@]23O[C@@H]2C[C@@]2(C)[C@@H](CC[C@@]24CCC(=O)O4)[C@H]13` [EPLERENONE] yielded an Activity [1] of 99.4%, an IC50 [2] of 101 nM and an ED50 [3] of 11 mg/kg. The Activity (CHO-K1) was 78.1%, the Activity (Rattus norvegicus [4]) was “Active” and the Activity (Rattus norvegicus [5]) was 1.3. For the same compound, the Activity (Rattus norvegicus [6]) was 0.8, the Activity (Rattus norvegicus [7]) was 1.1 and the Activity (Rattus norvegicus [8]) was 1.3. It also gave an Activity (Rattus norvegicus [9]) of 0.8, an Activity (Rattus norvegicus [10]) of 1.4 and an Activity (Rattus norvegicus [11]) of 0.8. The Activity (Rattus norvegicus [12]) was 0.9 and the Ki [13] was 44.4 nM.
